Measurements as given in PubChem BioAssay (NCI).
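All cell lines were grown in 96-well plates and treated with compound for 48 hours. Abbreviation: GI50, concentration required for 50% inhibition of growth. At the TGI there is no net growth.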

Columns and labels:
Assay in all cases: NCI tumour cell line growth inhibition, 48 h
HCT-116 colon = tested on: HCT-116 colon
HCT-15 colon = tested on: HCT-15 colon
NCI-H460 lung = tested on: NCI-H460 lung
NCI-H522 lung = tested on: NCI-H522 lung
OVCAR-3 ovarian = tested on: OVCAR-3 ovarian
OVCAR-5 ovarian = tested on: OVCAR-5 ovarian
SF-539 CNS = tested on: SF-539 CNS
SN12C renal = tested on: SN12C renal
SNB-75 CNS = tested on: SNB-75 CNS
U251 CNS = tested on: U251 CNS

SMILES: Cc1cc(N2CCCCC2)nc(N(CCCNc2ccnc3cc(Cl)ccc23)Cc2ccco2)n1
- GI50 (HCT-116 colon): 1.15 µM
- TGI (HCT-116 colon): 3.28 µM
- GI50 (HCT-15 colon): 1.62 µM
- TGI (HCT-15 colon): 4.88 µM
- GI50 (NCI-H460 lung): 1.8 µM
- TGI (NCI-H460 lung): 4.23 µM
- GI50 (NCI-H522 lung): 2.63 µM
- TGI (NCI-H522 lung): 7.69 µM
- GI50 (OVCAR-3 ovarian): 2.02 µM
- TGI (OVCAR-3 ovarian): 5.01 µM
- GI50 (OVCAR-5 ovarian): 3 µM
- TGI (OVCAR-5 ovarian): 15 µM
- GI50 (SF-539 CNS): 1.61 µM
- TGI (SF-539 CNS): 3.19 µM
- GI50 (SN12C renal): 2.14 µM
- TGI (SN12C renal): 7.15 µM
- GI50 (SNB-75 CNS): 3.36 µM
- TGI (SNB-75 CNS): 16.8 µM
- GI50 (U251 CNS): 1.8 µM
- TGI (U251 CNS): 3.76 µM

SMILES: O=c1c2cccc(Cl)c2sc2c(NCCCNCCO)nc3ccccc3c12
- GI50 (HCT-116 colon): 1.57 µM
- TGI (HCT-116 colon): 3.13 µM
- GI50 (HCT-15 colon): 1.54 µM
- TGI (HCT-15 colon): 3.33 µM
- GI50 (NCI-H460 lung): 1.01 µM
- TGI (NCI-H460 lung): 2.32 µM
- GI50 (NCI-H522 lung): 1.99 µM
- TGI (NCI-H522 lung): 4.42 µM
- GI50 (OVCAR-3 ovarian): 2.28 µM
- TGI (OVCAR-3 ovarian): 6.19 µM
- GI50 (OVCAR-5 ovarian): 2.8 µM
- TGI (OVCAR-5 ovarian): 10.1 µM
- GI50 (SF-539 CNS): 1.67 µM
- TGI (SF-539 CNS): 3.32 µM
- GI50 (SN12C renal): 2.62 µM
- TGI (SN12C renal): 14 µM
- GI50 (SNB-75 CNS): 7.69 µM
- TGI (SNB-75 CNS): 22 µM
- GI50 (U251 CNS): 1.84 µM
- TGI (U251 CNS): 4.13 µM

SMILES: CC(=O)[CH-]C(=O)c1ccccc1.CC(=O)[CH-]C(=O)c1ccccc1.CC[O-].CC[O-].[Zr+4]
- GI50 (HCT-116 colon): > 100 µM
- TGI (HCT-116 colon): > 100 µM
- GI50 (HCT-15 colon): > 100 µM
- TGI (HCT-15 colon): > 100 µM
- GI50 (NCI-H460 lung): > 100 µM
- TGI (NCI-H460 lung): > 100 µM
- GI50 (NCI-H522 lung): > 100 µM
- TGI (NCI-H522 lung): > 100 µM
- GI50 (OVCAR-3 ovarian): > 100 µM
- TGI (OVCAR-3 ovarian): > 100 µM
- GI50 (OVCAR-5 ovarian): > 100 µM
- TGI (OVCAR-5 ovarian): > 100 µM
- GI50 (SF-539 CNS): > 100 µM
- TGI (SF-539 CNS): > 100 µM
- GI50 (SN12C renal): > 100 µM
- TGI (SN12C renal): > 100 µM
- GI50 (SNB-75 CNS): > 100 µM
- TGI (SNB-75 CNS): > 100 µM
- GI50 (U251 CNS): > 100 µM
- TGI (U251 CNS): > 100 µM

SMILES: COc1cc(/C=C2/C(=O)N(C(=O)OC(C)C)C(Cc3cc(OC)c(OC)c(C)c3OC)C(=O)N2Cc2ccccc2)c(OC)c(C)c1OC (stereo not drawn)
- TGI (HCT-116 colon): > 100 µM
- TGI (NCI-H460 lung): > 100 µM
- TGI (NCI-H522 lung): 32 µM
- TGI (OVCAR-3 ovarian): > 100 µM
- TGI (OVCAR-5 ovarian): > 100 µM
- TGI (SF-539 CNS): > 100 µM
- TGI (SN12C renal): > 100 µM
- TGI (SNB-75 CNS): > 100 µM
- TGI (U251 CNS): > 100 µM

SMILES: Cc1c(Cl)ccc2c1NC(=O)C2(O)C(C(=O)c1ccccc1)c1ccccc1 (stereo not drawn)
- TGI (HCT-116 colon): > 100 µM
- TGI (HCT-15 colon): > 100 µM
- TGI (NCI-H460 lung): > 100 µM
- TGI (NCI-H522 lung): 93.7 µM
- TGI (OVCAR-5 ovarian): > 100 µM
- TGI (SF-539 CNS): > 100 µM
- TGI (SN12C renal): > 100 µM
- TGI (SNB-75 CNS): > 100 µM
- TGI (U251 CNS): > 100 µM

SMILES: COc1cc(/C=C2\[C@H]3c4c(c(OC)c(C)c(OC)c4OC)C[C@@H](C(=O)N2Cc2ccccc2)N3C(=O)OCC(C)C)c(OC)c(C)c1OC
- TGI (HCT-116 colon): > 100 µM
- TGI (HCT-15 colon): > 100 µM
- TGI (NCI-H460 lung): > 100 µM
- TGI (NCI-H522 lung): > 100 µM
- TGI (OVCAR-3 ovarian): > 100 µM
- TGI (OVCAR-5 ovarian): > 100 µM
- TGI (SF-539 CNS): > 100 µM
- TGI (SN12C renal): > 100 µM
- TGI (SNB-75 CNS): > 100 µM
- TGI (U251 CNS): > 100 µM

SMILES: Cc1cc(O)cc2oc(=O)c3c(O)cc(O)cc3c12
- TGI (HCT-116 colon): 37.6 µM
- TGI (HCT-15 colon): 45.4 µM
- TGI (NCI-H460 lung): 30.8 µM
- TGI (NCI-H522 lung): 30.4 µM
- TGI (OVCAR-3 ovarian): 58.4 µM
- TGI (OVCAR-5 ovarian): > 100 µM
- TGI (SF-539 CNS): 49.2 µM
- TGI (SN12C renal): > 100 µM
- TGI (SNB-75 CNS): 32.2 µM
- TGI (U251 CNS): > 100 µM

SMILES: O=[N+]([O-])c1ccc(Br)c([N+](=O)[O-])c1
- GI50 (HCT-116 colon): 2.09 µM
- TGI (HCT-116 colon): 5.02 µM
- GI50 (HCT-15 colon): 1.93 µM
- TGI (HCT-15 colon): 4.59 µM
- GI50 (NCI-H460 lung): 2.56 µM
- TGI (NCI-H460 lung): 8.72 µM
- GI50 (NCI-H522 lung): 0.163 µM
- TGI (NCI-H522 lung): 0.355 µM
- GI50 (OVCAR-3 ovarian): 1.88 µM
- TGI (OVCAR-3 ovarian): 3.38 µM
- GI50 (OVCAR-5 ovarian): 1.77 µM
- TGI (OVCAR-5 ovarian): 3.5 µM
- GI50 (SF-539 CNS): 2.06 µM
- TGI (SF-539 CNS): 5.01 µM
- GI50 (SN12C renal): 2.37 µM
- TGI (SN12C renal): 5.68 µM
- GI50 (SNB-75 CNS): 1.69 µM
- TGI (SNB-75 CNS): 4.36 µM
- GI50 (U251 CNS): 1.72 µM
- TGI (U251 CNS): 3.29 µM

SMILES: Oc1ccc2cc(Br)ccc2c1-c1c(O)ccc2cc(Br)ccc12
- GI50 (HCT-116 colon): 1.95 µM
- TGI (HCT-116 colon): 4.01 µM
- GI50 (HCT-15 colon): 3.2 µM
- TGI (HCT-15 colon): 12.1 µM
- GI50 (NCI-H460 lung): 3.76 µM
- TGI (NCI-H460 lung): 15 µM
- GI50 (NCI-H522 lung): 1.98 µM
- TGI (NCI-H522 lung): 4.53 µM
- GI50 (OVCAR-3 ovarian): 3.21 µM
- TGI (OVCAR-3 ovarian): 9.77 µM
- GI50 (OVCAR-5 ovarian): 4.23 µM
- TGI (OVCAR-5 ovarian): 15.6 µM
- GI50 (SF-539 CNS): 3.34 µM
- TGI (SF-539 CNS): 12 µM
- GI50 (SN12C renal): 2.04 µM
- TGI (SN12C renal): 4.81 µM
- GI50 (SNB-75 CNS): 3.15 µM
- TGI (SNB-75 CNS): 13.9 µM
- GI50 (U251 CNS): 3.93 µM
- TGI (U251 CNS): 12.9 µM

SMILES: COc1cc(C2=NN(C)C(c3ccc([N+](=O)[O-])o3)C2)cc(OC)c1OC (stereo not drawn)
- TGI (HCT-116 colon): > 100 µM
- TGI (HCT-15 colon): 32.7 µM
- TGI (NCI-H460 lung): > 100 µM
- TGI (NCI-H522 lung): > 100 µM
- TGI (OVCAR-5 ovarian): > 100 µM
- TGI (SF-539 CNS): > 100 µM
- TGI (SN12C renal): > 100 µM
- TGI (SNB-75 CNS): > 100 µM
- TGI (U251 CNS): > 100 µM

SMILES: CS(=O)(=O)NNS(=O)(=O)c1cccc([N+](=O)[O-])c1
- TGI (HCT-116 colon): > 100 µM
- TGI (HCT-15 colon): > 100 µM
- TGI (NCI-H460 lung): > 100 µM
- TGI (NCI-H522 lung): > 100 µM
- TGI (SF-539 CNS): > 100 µM
- TGI (SN12C renal): > 100 µM
- TGI (SNB-75 CNS): > 100 µM
- TGI (U251 CNS): > 100 µM

SMILES: CC(=O)N1c2ccccc2C23CCN(C)CC4C(C)OCC(C4CC2=O)C13 (stereo not drawn)
- TGI (HCT-116 colon): > 100 µM
- TGI (HCT-15 colon): > 100 µM
- TGI (NCI-H460 lung): > 100 µM
- TGI (NCI-H522 lung): > 100 µM
- TGI (OVCAR-5 ovarian): > 100 µM
- TGI (SF-539 CNS): > 100 µM
- TGI (SN12C renal): > 100 µM
- TGI (SNB-75 CNS): > 100 µM
- TGI (U251 CNS): > 100 µM

SMILES: CC(=O)OC(/C=C1/C=CC(=O)O1)COC(=O)c1ccccc1 (stereo not drawn)
- TGI (HCT-116 colon): > 31.2 µM
- TGI (NCI-H460 lung): > 31.2 µM
- TGI (NCI-H522 lung): > 31.2 µM
- TGI (OVCAR-3 ovarian): > 31.2 µM
- TGI (OVCAR-5 ovarian): > 31.2 µM
- TGI (SF-539 CNS): > 31.2 µM
- TGI (SN12C renal): > 31.2 µM
- TGI (SNB-75 CNS): > 31.2 µM
- TGI (U251 CNS): > 31.2 µM
